Patent US20130090476A1, “Thiazolylpiperidine Derivatives as Fungicides” (priority 2009, published 2013)
Marks after values point to notes of the source that are not given here.

Test: not given
Conditions: pH 2.7

Question: With `Cc1ccc(C)c(NC(=O)N2CCC(c3nc(CSC45CC6CC(CC(C6)C4)C5)cs3)CC2)c1` [Compound I-72] as the compound, how does the logP read?
Answer: 5.38*

Question: For `Cc1ccc(C)c(NC(=O)N2CCC(c3nc(CSc4nnnn4-c4ccccc4)cs3)CC2)c1` [Compound I-84], which logP is on record?
Answer: 3.26*

Question: For `Cc1ccc(F)c(NC(=O)N2CCC(c3nc(CSc4nnnn4-c4ccccc4)cs3)CC2)c1` [Compound I-60], which logP is on record?
Answer: 3.28*

Question: With `Cc1ccc(Cl)c(NC(=O)N2CCC(c3nc(CSc4nnnn4-c4ccccc4)cs3)CC2)c1` [Compound I-87] as the compound, how does the logP read?
Answer: 3.72*

Question: For `Cc1cc(C(F)(F)F)nn1CC(=O)N1CCC(c2nc(CS(=O)(=O)C34CC5CC(CC(C5)C3)C4)cs2)CC1` [Compound I-6, 1-[4-(4-{[(3S,5S,7S)-Adamantan-1-ylsulphonyl]methyl}-1,3-thiazol-2-yl)piperidin-1-yl]-2-[5-methyl-3-(trifluoromethyl)-1H-pyrazol-1-yl]ethanone], which “log P (pH2.7)” value is on record?
Answer: 3.42

Question: And the logP?
Answer: 3.4*

Question: For `Cc1ccc(C)c(NC(=S)N2CCC(c3nc(CSc4nnnn4-c4ccccc4)cs3)CC2)c1` [Compound I-98], which logP is on record?
Answer: 3.52*

Question: With `O=C(Cn1nc(C(F)F)cc1C(F)F)N1CCC(c2nc(CSc3nnnn3-c3ccccc3)cs2)CC1` [Compound I-35] as the compound, how does the logP read?
Answer: 3.11*

Question: For `Cc1ccc(Cl)cc1NC(=O)N1CCC(c2nc(CSc3nnnn3-c3ccccc3)cs2)CC1` [Compound I-24], which logP is on record?
Answer: 3.43*

Question: For `O=C(Cn1nc(C(F)F)cc1C(F)F)N1CCC(c2nc(CS(=O)(=O)c3nnnn3-c3ccccc3)cs2)CC1` [Compound I-29], which logP is on record?
Answer: 2.97*

Question: With `O=C(Cn1nc(C(F)(F)F)cc1C(F)(F)F)N1CCC(c2nc(CSc3nnnn3-c3ccccc3)cs2)CC1` [Compound I-34] as the compound, how does the logP read?
Answer: 3.8*

Question: For `O=C(Cc1cc(Cl)ccc1Cl)N1CCC(c2nc(CSc3nnnn3-c3ccccc3)cs2)CC1` [Compound I-46], which logP is on record?
Answer: 3.8*

Question: What does the source list for `Cc1cc(C(F)(F)F)nn1CC(=O)N1CCC(c2nc(CSC34CC5CC(CC(C5)C3)C4)cs2)CC1` [Compound I-2, 1-[4-(4-{[(3S,5S,7S)-Adamantan-1-ylsulphanyl]methyl}-1,3-thiazol-2-yl)piperidin-1-yl]-2-[5-methyl-3-(trifluoromethyl)-1H-pyrazol-1-yl]ethanone]?
Answer: log P (pH2.7): 5.21; logP: 5.21*

Question: Which logP does the source give for `COc1ccc(C)cc1NC(=O)N1CCC(c2nc(CSc3nnnn3-c3ccccc3)cs2)CC1` [Compound I-33] here?
Answer: 3.5*

Question: With `O=C(Nc1cc(Cl)ccc1Cl)N1CCC(c2nc(CSc3nnnn3-c3ccccc3)cs2)CC1` [Compound I-49] as the compound, how does the logP read?
Answer: 3.95*

Question: Which logP does the source give for `Cc1ccc([N+](=O)[O-])cc1NC(=O)N1CCC(c2nc(CSc3nnnn3-c3ccccc3)cs2)CC1` [Compound I-18] here?
Answer: 3.09*

Test: logP determination by HPLC (EEC Directive 79/831 Annex V.A8), LC-MS
Conditions: * acidic range, pH 2.7, 0.1% aqueous formic acid/acetonitrile

Question: For `COc1ccc(Cl)cc1NC(=O)N1CCC(c2nc(CSc3nnnn3-c3ccccc3)cs2)CC1` [Compound I-79], which logP is on record?
Answer: 3.8*

Question: For `Cc1noc(C)c1NC(=S)N1CCC(c2nc(CSc3nnnn3-c3ccccc3)cs2)CC1` [Compound I-99], which logP is on record?
Answer: 2.7*

Question: Which logP does the source give for `Cc1cc(C(F)(F)F)nn1CC(=O)N1CCC(c2nc(CSC3=NOC(c4ccccc4)C3)cs2)CC1` (racemic) [Compound I-88] here?
Answer: 3.52*

Question: With `Fc1ccc(Br)c(NC(=S)N2CCC(c3nc(CSc4nnnn4-c4ccccc4)cs3)CC2)c1` [Compound I-66] as the compound, how does the logP read?
Answer: 3.46*

Question: With `S=C(Nc1cc(Cl)ccc1Cl)N1CCC(c2nc(CSc3nnnn3-c3ccccc3)cs2)CC1` [Compound I-52] as the compound, how does the logP read?
Answer: 3.77*

Question: Which logP does the source give for `Cc1ccc(C)c(CC(=O)N2CCC(c3nc(CSc4cccc5ccccc45)cs3)CC2)c1` [Compound I-43] here?
Answer: 4.86*

Question: Which logP does the source give for `Cc1cc(C(F)(F)F)nn1CC(=O)N1CCC(c2nc(CSc3ccccc3-c3ccccc3)cs2)CC1` [Compound I-69] here?
Answer: 4.49*

Question: For `O=C(Cn1nc(C(F)F)cc1C(F)F)N1CCC(c2nc(CSc3ccccc3-c3ccccc3)cs2)CC1` [Compound I-19], which logP is on record?
Answer: 4.36*

Question: With `O=C(Nc1cc(C(F)(F)F)ccc1Cl)N1CCC(c2nc(CSc3nnnn3-c3ccccc3)cs2)CC1` [Compound I-76] as the compound, how does the logP read?
Answer: 4.2*

Question: For `O=C(Cn1nc(C(F)F)cc1C(F)F)N1CCC(c2nc(CSc3nccn3-c3ccccc3)cs2)CC1` [Compound I-65], which logP is on record?
Answer: 2.13*

Question: Which logP does the source give for `Cc1ccc(C)c(CC(=O)N2CCC(c3nc(CSC45CC6CC(CC(C6)C4)C5)cs3)CC2)c1` [Compound I-27] here?
Answer: 5.99*

Question: With `Fc1ccc(F)c(NC(=S)N2CCC(c3nc(CSc4nnnn4-c4ccccc4)cs3)CC2)c1` [Compound I-23] as the compound, how does the logP read?
Answer: 3.26*

Question: With `Cc1ccc(C)c(NC(=O)N2CCC(c3nc(CSc4cccc5ccccc45)cs3)CC2)c1` [Compound I-47] as the compound, how does the logP read?
Answer: 4.37*

Question: Which logP does the source give for `COc1ccc(OC)c(NC(=O)N2CCC(c3nc(CSc4nnnn4-c4ccccc4)cs3)CC2)c1` [Compound I-25] here?
Answer: 3.26*

Question: With `Cc1cc(C(F)(F)F)nn1CC(=O)N1CCC(c2nc(CSc3nccn3-c3ccccc3)cs2)CC1` [Compound I-61] as the compound, how does the logP read?
Answer: 2.22*

Question: With `Cc1ccc(F)cc1NC(=O)N1CCC(c2nc(CSc3nnnn3-c3ccccc3)cs2)CC1` [Compound I-63] as the compound, how does the logP read?
Answer: 3.2*

Question: Which logP does the source give for `Cc1ccc(C)c(NC(=O)N2CCC(c3nc(CSC4CCCCC4)cs3)CC2)c1` [Compound I-16] here?
Answer: 4.38*

Question: Which logP does the source give for `O=C(Nc1cc(F)ccc1F)N1CCC(c2nc(CSc3nnnn3-c3ccccc3)cs2)CC1` [Compound I-56] here?
Answer: 3.27*

Question: For `O=C(Cn1nc(C(F)(F)F)cc1C(F)(F)F)N1CCC(c2nc(CS(=O)(=O)c3nnnn3-c3ccccc3)cs2)CC1` [Compound I-26], which logP is on record?
Answer: 3.59*

Question: Which logP does the source give for `Cc1noc(C)c1NC(=O)N1CCC(c2nc(CSc3nnnn3-c3ccccc3)cs2)CC1` [Compound I-75] here?
Answer: 2.22*

Same assay, conditions: pH 2.7, log P (pH2.7), pH 2.7, value given in the preparation text

Question: With `CC(C)(C)OC(=O)N1CCC(c2nc(CSc3nnnn3-c3ccccc3)cs2)CC1` [IV-4, tert-Butyl 4-(4-{[(1-phenyl-1H-tetrazol-5-yl)sulphanyl]methyl}-1,3-thiazol-2-yl)piperidine-1-carboxylate] as the compound, how does the chromatographic logP read?
Answer: 3.91

Question: Which chromatographic logP does the source give for `O=C(Cn1nc(C(F)F)cc1C(F)F)N1CCC(c2nc(CSC3=NOC(c4ccccc4)C3)cs2)CC1` (stereo not shown) [Compound I-58, 2-[3,5-Bis(difluoromethyl)-1H-pyrazol-1-yl]-1-{4-[4-({[5-phenyl-4,5-dihydro-1,2-oxazol-3-yl]sulphanyl}methyl)-1,3-thiazol-2-yl]piperidin-1-yl}ethanone] here?
Answer: 3.4

Question: With `CC(C)(C)OC(=O)N1CCC(c2nc(CSC3=NOC(c4ccccc4)C3)cs2)CC1` (stereo not shown) [IV-6, tert-Butyl 4-[4-({[5-phenyl-4,5-dihydro-1,2-oxazol-3-yl]sulphanyl}methyl)-1,3-thiazol-2-yl]piperidine-1-carboxylate] as the compound, how does the chromatographic logP read?
Answer: 4.25

Question: With `CC(C)(C)OC(=O)N1CCC(c2nc(CSc3cccc4cccnc34)cs2)CC1` [IV-5, tert-Butyl 4-{4-[(quinolin-8-ylsulphanyl)methyl]-1,3-thiazol-2-yl}piperidine-1-carboxylate] as the compound, how does the chromatographic logP read?
Answer: 3.71

Question: Which chromatographic logP does the source give for `CC(C)(C)OC(=O)N1CCC(c2nc(CSC3CCCCC3)cs2)CC1` [IV-3, tert-Butyl 4-{4-[(cyclohexylsulphanyl)methyl]-1,3-thiazol-2-yl}piperidine-1-carboxylate] here?
Answer: 5.45

Question: For `CC(C)(C)OC(=O)N1CCC(c2nc(CSc3cccc4ccccc34)cs2)CC1` [IV-1, tert-Butyl 4-{4-[(1-naphthylsulphanyl)methyl]-1,3-thiazol-2-yl}piperidine-1-carboxylate], which chromatographic logP is on record?
Answer: 5.33

Question: With `Cc1cc(C(F)(F)F)nn1CC(=O)N1CCC(c2nc(CSc3cccc4cccnc34)cs2)CC1` [Compound I-5, 1-(4-{4-[(Quinolin-8-ylsulphanyl)methyl]-1,3-thiazol-2-yl}piperidin-1-yl)-2-[5-methyl-3-(trifluoromethyl)-1H-pyrazol-1-yl]ethanone] as the compound, how does the chromatographic logP read?
Answer: 3

Question: For `Cc1cc(C(F)(F)F)nn1CC(=O)N1CCC(c2nc(C[S+]([O-])c3cccc4cccnc34)cs2)CC1` (stereo not shown) [Compound I-12, 1-(4-{4-[(Quinolin-8-ylsulphinyl)methyl]-1,3-thiazol-2-yl}piperidin-1-yl)-2-[5-methyl-3-(trifluoromethyl)-1H-pyrazol-1-yl]ethanone], which chromatographic logP is on record?
Answer: 2.48

Question: With `ClC1=NOC(c2ccccc2)C1` (stereo not shown) [Compound X-1, 3-Chloro-5-phenyl-4,5-dihydro-1,2-oxazole] as the compound, how does the chromatographic logP read?
Answer: 2.36

Question: Which chromatographic logP does the source give for `Cc1cc(C(F)(F)F)nn1CC(=O)N1CCC(c2nc(C[S+]([O-])C3CCCCC3)cs2)CC1` (stereo not shown) [Compound I-11, 1-(4-{4-[(Cyclohexylsulphinyl)methyl]-1,3-thiazol-2-yl}piperidin-1-yl)-2-[5-methyl-3-(trifluoromethyl)-1H-pyrazol-1-yl]ethanone] here?
Answer: 2.55

Question: With `CC(C)(C)OC(=O)N1CCC(c2nc(CSC34CC5CC(CC(C5)C3)C4)cs2)CC1` [IV-2, tert-Butyl 4-(4-{[(3S,5S,7S)-adamantan-1-ylsulphanyl]methyl}-1,3-thiazol-2-yl)piperidine-1-carboxylate] as the compound, how does the chromatographic logP read?
Answer: 6.66

Question: Which chromatographic logP does the source give for `CC(C)(C)OC(=O)N1CCC(c2nc(CI)cs2)CC1` [VI-1, tert-Butyl 4-[4-(iodomethyl)-1,3-thiazol-2-yl]piperidine-1-carboxylate] here?
Answer: 3.71

Question: For `Cc1cc(C(F)(F)F)nn1CC(=O)N1CCC(c2nc(CSc3nnnn3-c3ccccc3)cs2)CC1` [Compound I-4, 2-[5-Methyl-3-(trifluoromethyl)-1H-pyrazol-1-yl]-1-[4-(4-{[(1-phenyl-1H-tetrazol-5-yl)sulphanyl]methyl}-1,3-thiazol-2-yl)piperidin-1-yl]ethanone], which chromatographic logP is on record?
Answer: 3.25

Question: Which chromatographic logP does the source give for `Cc1cc(C(F)(F)F)nn1CC(=O)N1CCC(c2nc(C[S+]([O-])c3nnnn3-c3ccccc3)cs2)CC1` (stereo not shown) [Compound I-14, 2-[5-Methyl-3-(trifluoromethyl)-1H-pyrazol-1-yl]-1-[4-(4-{[(1-phenyl-1H-tetrazol-5-yl)sulphinyl]methyl}-1,3-thiazol-2-yl)piperidin-1-yl]ethanone] here?
Answer: 2.69

Same assay, conditions: pH 2.7, logP, * acidic range, pH 2.7, 0.1% aqueous formic acid/acetonitrile

Question: With `O=C(Cn1nc(C(F)F)cc1C(F)F)N1CCC(c2nc(CSC3=NOC(c4ccccc4)C3)cs2)CC1` (stereo not shown) [Compound I-58, 2-[3,5-Bis(difluoromethyl)-1H-pyrazol-1-yl]-1-{4-[4-({[5-phenyl-4,5-dihydro-1,2-oxazol-3-yl]sulphanyl}methyl)-1,3-thiazol-2-yl]piperidin-1-yl}ethanone] as the compound, how does the chromatographic logP read?
Answer: 3.4

Question: With `Cc1cc(C(F)(F)F)nn1CC(=O)N1CCC(c2nc(CSc3cccc4cccnc34)cs2)CC1` [Compound I-5, 1-(4-{4-[(Quinolin-8-ylsulphanyl)methyl]-1,3-thiazol-2-yl}piperidin-1-yl)-2-[5-methyl-3-(trifluoromethyl)-1H-pyrazol-1-yl]ethanone] as the compound, how does the chromatographic logP read?
Answer: 3

Question: Which chromatographic logP does the source give for `Cc1cc(C(F)(F)F)nn1CC(=O)N1CCC(c2nc(C[S+]([O-])c3cccc4cccnc34)cs2)CC1` (stereo not shown) [Compound I-12, 1-(4-{4-[(Quinolin-8-ylsulphinyl)methyl]-1,3-thiazol-2-yl}piperidin-1-yl)-2-[5-methyl-3-(trifluoromethyl)-1H-pyrazol-1-yl]ethanone] here?
Answer: 2.48

Question: For `Cc1cc(C(F)(F)F)nn1CC(=O)N1CCC(c2nc(C[S+]([O-])C3CCCCC3)cs2)CC1` (stereo not shown) [Compound I-11, 1-(4-{4-[(Cyclohexylsulphinyl)methyl]-1,3-thiazol-2-yl}piperidin-1-yl)-2-[5-methyl-3-(trifluoromethyl)-1H-pyrazol-1-yl]ethanone], which chromatographic logP is on record?
Answer: 2.55

Question: For `Cc1cc(C(F)(F)F)nn1CC(=O)N1CCC(c2nc(CSc3nnnn3-c3ccccc3)cs2)CC1` [Compound I-4, 2-[5-Methyl-3-(trifluoromethyl)-1H-pyrazol-1-yl]-1-[4-(4-{[(1-phenyl-1H-tetrazol-5-yl)sulphanyl]methyl}-1,3-thiazol-2-yl)piperidin-1-yl]ethanone], which chromatographic logP is on record?
Answer: 3.25

Question: For `Cc1cc(C(F)(F)F)nn1CC(=O)N1CCC(c2nc(C[S+]([O-])c3nnnn3-c3ccccc3)cs2)CC1` (stereo not shown) [Compound I-14, 2-[5-Methyl-3-(trifluoromethyl)-1H-pyrazol-1-yl]-1-[4-(4-{[(1-phenyl-1H-tetrazol-5-yl)sulphinyl]methyl}-1,3-thiazol-2-yl)piperidin-1-yl]ethanone], which chromatographic logP is on record?
Answer: 2.69

Same assay, conditions: pH 7.8, logP, ** neutral range, pH 7.8, 0.001 molar aqueous ammonium bicarbonate/acetonitrile

Question: For `Cc1cc(C(F)(F)F)nn1CC(=O)N1CCC(c2nc(CSc3nnnn3-c3ccccc3)cs2)CC1` [Compound I-4, 2-[5-Methyl-3-(trifluoromethyl)-1H-pyrazol-1-yl]-1-[4-(4-{[(1-phenyl-1H-tetrazol-5-yl)sulphanyl]methyl}-1,3-thiazol-2-yl)piperidin-1-yl]ethanone], which chromatographic logP is on record?
Answer: 3.26
